Data on twelve compounds can be found in article PMC5786798, “Discovery of New Inhibitors of Toxoplasma gondii via the Pathogen Box” (Antimicrobial Agents and Chemotherapy, 2018).

Usually CC50 stands for the concentration that lowers cell viability or growth by half. High values mean lower toxicity to the cells, low ones greater toxicity to the cells. As a reminder, the IC50 is the midpoint of a concentration-inhibition curve.

Series [1] is described as follows: Cytotoxicity evaluation on Vero cell cultures (UptiBlue viable cell counting assay, 72 h). Conditions: African green monkey, Vero cells, means from four values from two experiments. Type of series: cell-based. How it is done:
The in vitro cytotoxicity of compounds was evaluated on Vero cell cultures by using 96-well plates, since these cells were used for T. gondii growth in our model. […] After 72 h, cytotoxicity was evaluated by using the UptiBlue viable cell counting assay (Interchim). […] Spectrophotometric measurements (FLUOstar Omega microplate reader; BMG Labtech, France) were made at 570 nm and corrected at 600 nm, and blank readings were made on the mean value of the seven negative-control wells. A sample was considered toxic when the cell viability was lower than 80%. […] For a visual control, the last well of each condition was fixed with cold methanol and stained with kit RAL 555 (RAL Diagnostics, France) and examined microscopically (AxioVert 200M; Zeiss, France) at a magnification of ×20 instead of being tested with UptiBlue.

For series [2], the system named is T. gondii tachyzoites (RH strain, type I). The series is described as follows: Determination of IC50s, in vitro chemosensitivity of T. gondii (ELISA, 72 h). Conditions: for IC50: T. gondii RH tachyzoites on Vero cells, 72 h, ELISA, 2-fold dilution series 2 to 0.015 μM, means from four values from two experiments; for selective antitoxoplasmic activity according to hit criteria: hit criteria IC50 <2 μM and SI >4. (In an ELISA, binding on a coated surface is turned into a signal by an enzyme label.)

The subject of series [3] is Toxoplasma gondii. Conditions: effect against Toxoplasma; literature value, no reference given; cited from earlier work.

Molecules are shown by their SMILES.

In series [1], `FC(F)(F)c1cnc(Sc2nnc(-c3ccncc3)o2)c(Cl)c1` [MMV011765] showed a CC50 at 72 h of 9.48 µM.

`c1ccc(-c2nc(NC3CCCCC3)cc(C3CC3)n2)nc1` [MMV021013]: the IC50 in series [2] was 1.12 ± 0.035 µM; in series [2] (Toxoplasma gondii, Vero) it was less than 2 µM. Further, in series [1], half-maximal cytotoxicity (CC50 at 72 h) was put at 15.9 µM.

In the case of `O=C(Nc1ccc(N2CCNCC2)cc1)c1ccn2ncc(-c3cccc(Cl)c3)c2n1` [MMV022478], the CC50 at 72 h in series [1] was 2.23 µM. With `COc1ccc(OC)c(NCc2ccc3nc(N)nc(N)c3c2Cl)c1` [MMV675968], the CC50 at 72 h in series [1] was determined as 5.5 µM. `O=C(Nc1nc(-c2ccccn2)cs1)c1cncn1-c1ccccc1` [MMV676512]: in series [1], half-maximal cytotoxicity (CC50 at 72 h) was put at 3.61 µM. For the compound `CNC(=O)c1nn(C)c2c1C(C)(C)Cc1cnc(Nc3ccc(N4CCN(C)CC4)cc3)nc1-2` [MMV676602], the CC50 at 72 h in series [1] worked out at 3.3 µM. Compound `O=C(Nc1ccc(C(F)(F)F)c(C(F)(F)F)c1)c1cc(Cl)ccc1O` [MMV687807] yielded a CC50 at 72 h in series [1] of 1.69 µM. Turning to `CN1CCC(c2cc(-c3ccncc3)c(-c3ccc(F)cc3)[nH]2)CC1` [MMV688703], the “selective antitoxoplasmic activity according to hit criteria” value in series [2] is “not selective”; in series [2] (listed as MV688703), “did not show the criteria for inclusion as an active compound”. For `CC(C)(C)[C@H]1CC[C@H](CC2=C(O)C(=O)c3ccccc3C2=O)CC1` [MMV689480, buparvaquone, reference compound], the midpoint of cytotoxicity in series [1], the CC50 at 72 h, lay at 8.66 µM. `CCc1nc(N)nc(N)c1-c1ccc(Cl)cc1` [PYR, pyrimethamine, reference compound] came in with an IC50 in series [2] (Toxoplasma gondii, Vero) of 1.17 ± 0.076 µM. For the same compound, half-maximal cytotoxicity in series [1] (CC50 at 72 h) was put at 10.5 µM.

Take `OC(Cn1cncn1)(Cn1cncn1)c1ccc(F)cc1F` [fluconazole]: the IC50 in series [3] was 3 µM. Regarding `CCC(C)n1ncn(-c2ccc(N3CCN(c4ccc(OCC5COC(Cn6cncn6)(c6ccc(Cl)cc6Cl)O5)cc4)CC3)cc2)c1=O` (stereo not shown) [itraconazole], the IC50 in series [3] is 0.5 µM.
